The text below walks through data of patent EP1808169B1, “Polyhydroxylated aromatic compounds for the treatment of amyloidosis and alpha-synuclein fibril diseases” (priority 1999, dated 2001).

Marks after values point to notes of the source that are not given here.

Assay type in all cases: biochemical
The subject of one assay is Aβ 1-42 amyloid fibrils. The assay can be described thus: Thioflavin T fluorometry: disassembly/disruption of pre-formed Aβ 1-42 amyloid fibrils. The settings on record: for Fluorescence inhibition, %, at the Aβ 1-42:compound w/w ratios given: overnight (~18 hours) at 37°C, pH 7.0, mean of triplicate ± standard deviation. How it is done:
For the first study, 1 mg of Aβ 1-42 (Bachem Inc., Torrance, CA, USA) was dissolved in 1.0 ml of double distilled water (1 mg/ml solution). 25 µM of Aβ 1-42 was then incubated overnight (~18 hours) at 37°C, in the absence or presence of 100µg/ml of the following compounds: 1) EDTA (Sigma Chemical Company, St. Louis, MO, USA), 2) myricetin (Acros, Somerville, New Jersey, USA), 3) exifone (Acros) 4) pyrogallol (Sigma), 5) tannic acid (Acros), 6) pyrocatechol (Acros), 7) quercetin (Sigma), 8) ellagic acid (Acros), 9) 1,2,4-benzenetriol (Acros), 10) 5-hydroxydopamine (Acros), 11) gallamide hydrate (Acros), 12) gallic acid (Sigma), 13) ethyl gallate (Acros), 14) quinic acid (Acros), 15) propyl gallate (Sigma), and 16) phloroglucide (Acros), each in the presence of 150 mM Tris HCl, 10 mM NaCl (pH 7.0) with 0.02% sodium azide. In this study, the Aβ 1-42:compound weight ratio was 1:1.
For the second study, 1 mg of Aβ 1-42 (Bachem) was dissolved in 1.0 ml of double distilled water (1 mg/ml solution). 25 µM of Aβ 1-42 was then incubated overnight (~18 hours) at 37°C, in the absence or presence of 50µg/ml of the following compounds: 1) gallic acid, 2) ethyl gallate, 3) quinic acid, 4) gallamide trihydrate, 5) ellagic acid, 6) propyl gallate, and 7) pyrogallol, each in the presence of 150 mM Tris HCl, 10 mM NaCl (pH 7.0) with 0.02% sodium azide. In this study, the Aβ 1-42:compound weight ratio was 2:1.
Thioflavin T is known to bind to fibrillar amyloid proteins, and an increase in fluorescence correlates with an increase in amyloid fibril formation, whereas a decrease in fluorescence correlates with a decrease in amyloid fibrils due to disassembly and/or disruption. The Alzheimer's Aβ protein (1-42) when placed in solution, such as distilled water, tends to spontaneously form amyloid fibrils. Using this sensitive assay, any decreases or increases in fluorescence was previously shown to correlate with a decrease or increase in the amount of amyloid fibrils (see the documents cited above), allowing one to identify and quantitate the extent of potential inhibitors and/or enhancers of Alzheimer's Aβ 1-42 amyloid fibrils.
To assess the effects of each compound on potential disassembly/ disruption of preformed Aβ 1-42 fibrils, 50 µl of Aβ 1-42 with or without test compounds (described above) were added to 1.2 ml of 100µM Thioflavin T (Sigma) in 50mM NaH2PO4 (pH 6.0) for fluorometry readings. […] Fluorescence emission at 482 nm was measured on a Turner instrument-model 450 fluorometer at an excitation wavelength of 450 nm. For each determination, the fluorometer was calibrated by zeroing in the presence of the Thioflavin T reagent alone, and by setting the 50 ng/ml riboflavin (Sigma Chemical Co., St. Louis, MO) in the Thioflavin T reagent to 1800 fluorescence units. All fluorescence determinations were based on these references and any fluorescence given off by any of the compounds in the presence of the Thioflavin T reagent was always subtracted from all pertinent readings.
For all fibrillogenesis studies utilizing Thioflavin T fluorometry, as disclosed herein, comparisons of amyloid protein in the presence or absence of test compounds were based on paired Student's t tests with data shown as the mean of triplicate measurements ± standard deviation.

The subject of another assay is Aβ 1-40 amyloid fibrils. Kind of assay: Modified Congo red-Aβ spectrophotometric assay: disaggregation of pre-formed Aβ 1-40 fibrils (3 days incubation). The settings on record: Aβ:compound weight ratio 2:1; fibrillized Aβ 1-40 incubated with compound 3 days at 37°C in TBS pH 7.0; Δ absorbance at 540 nm; triplicate. Here is the method:
In this study, a Congo red-Aβ spectrophotometric assay (Klunk et al., Anal. Biochem. 266:66-76, 1999) was modified to determine the effectiveness of polyhydroxylated aromatic compounds on the disaggregation of pre-formed Aβ 1-40 amyloid fibrils. For this assay, 1 mg of Aβ 1-40 (Bachem) was incubated for 4 days in distilled water at 37°C to spontaneously produce amyloid fibrils. 25pM of fibrillized Aβ 1-40 was then incubated in triplicate with various test compounds for 3 days at 37°C in Tris-buffered saline (TBS)(100 mM Tris; 50 mM NaCl; pH 7.0, with 0.02% sodium azide), at an Aβ:compound weight ratio of 2:1. Following incubation, 50µl of 360 µM Congo red (Sigma) in distilled water was then added to 250 µl of each incubation mixture, giving a final Aβ:Congo red molar ratio of 1:3. After 10 minutes, the absorbance at 405 nm (reference wavelength to account for the absorbance of Congo red alone at 540 nm) and 540 nm (sample absorbance where "sample" refers to Aβ alone, test compound alone, or Aβ plus test compound, all in the presence of Congo red) was determined using a Biorad Model 550 BLISA Plate Reader (Biorad, Hercules, CA, USA). The absorbance at wavelength 405 nm was automatically subtracted by the ELISA plate reader from the absorbance at wavelength 540 nm (difference is referred to as Δ absorbance)(see Klunk et al. cited above). Therefore, the Δ absorbance reading at 540 nm was proportional to the amount of aggregated Aβ left in solution (Klunk et al.).
For all experiments involving test compounds, the Δ absorbance reading at 540 nm of the test compound alone (in the absence of Aβ), was always subtracted from the corresponding Δ absorbance reading at 540 nm of the test compound in the presence of Aβ. Using this modification of the method of Klunk et al., the use of a greater final concentration of Congo red, i.e. 60µM instead of 14µM, in the presence of fibrillar Aβ gave an overall absorbance at 540 nm that was always below 1.0 Absorbance Unit (AU), and well within the linear absorbance range.
The following polyhydroxylated aromatic containing compounds were tested using the above described Congo red-Aβ spectrophotometric assay to determine their effectiveness on disaggregation of pre-formed Aβ 1-40 amyloid fibrils: 1) gallic acid, 2) ethyl gallate, 3) quinic acid, 4) gallamide trihydrate, 5) ellagic acid, 6) propyl gallate, and 7) pyrogallol.

The target in assay [1] is T1, human amylin (Homo sapiens, UniProt P10997).
T1 construct: This amyloid protein involved consists of a 37 amino acid protein known as islet amyloid polypeptide or amylin; purchased Bachem
T1 sequence (P10997 34-70 limits assumed): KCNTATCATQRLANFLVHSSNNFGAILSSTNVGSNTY
Kind of assay: Congo red staining of amylin fibrils on gelatin-coated slides (polarized light). The settings on record: result in words; amylin + compound after overnight incubation, compared with amylin alone. How it is done:
Following Thioflavin T fluorometry readings as described in Example 1, 5µl aliquots of amylin only, amylin + myricetin, amylin + exifone, and amylin + tannic acid were also taken, allowed to air dry overnight on gelatin-coated slides, and stained with Congo red as previously described (Castillo et al., Diabetes 47:612-620, 1998).

Assay [2] concerns the target T1, human amylin. The assay can be described thus: Thioflavin T fluorometry: disassembly/disruption of islet amyloid (amylin) fibrils. The settings on record: 25 µM human amylin, 100µg/ml compound, amylin:compound weight ratio 1:1, overnight (~18 hours) at 37°C, pH 7.0; read-out: Fluorescence inhibition, %.
Where [3] appears, read: Aβ 1-42:compound w/w ratio 2:1, 25 µM Aβ 1-42, 50µg/ml compound.
The mark [4] stands for this setting: Aβ 1-42:compound w/w ratio 1:1, 25 µM Aβ 1-42, 100µg/ml compound.

For `O=C(O)CN(CCN(CC(=O)O)CC(=O)O)CC(=O)O` [EDTA, reference compound], the “disassembly/disruption of Aβ 1-42 amyloid fibrils” value in the assay with Aβ 1-42 amyloid fibrils (result in words, 100µg/ml compound, 25 µM Aβ 1-42, weight ratio 1:1, overnight at 37°C) was “no significant disassembly/disruption”.
For the molecule `O=c1oc2c(O)c(O)cc3c(=O)oc4c(O)c(O)cc1c4c23` [Ellagic acid, ellagic acid], the “Decrease in absorbance, %” value in the assay with Aβ 1-40 amyloid fibrils stood at 54 ± 2.8%. Further, in the assay on Aβ 1-42 amyloid fibrils (setting [3]), the “Fluorescence inhibition, %, at the Aβ 1-42:compound w/w ratios given” value was 62 ± 3.9%.
Turning to `CCOC(=O)c1cc(O)c(O)c(O)c1` [Ethyl gallate, ethyl gallate], the “Decrease in absorbance, %” value in the assay on Aβ 1-40 amyloid fibrils was 28 ± 5.0%. Further, the “Fluorescence inhibition, %, at the Aβ 1-42:compound w/w ratios given” value in the assay on Aβ 1-42 amyloid fibrils (setting [3]) is 30 ± 3.7%.
By inhibition is commonly meant the change of the read-out against control, counted positive when it falls. In the case of `O=C(c1cc(O)c(O)c(O)c1)c1ccc(O)c(O)c1O` [Exifone, exifone], at human amylin [1], the Congo red staining result is listed as “marked decrease in Congo red staining”. Also, the “Fluorescence inhibition, %, at the Aβ 1-42:compound w/w ratios given” value in the assay with Aβ 1-42 amyloid fibrils (setting [4]) amounted to 93 ± 1.4%. Moreover, on human amylin [2], the inhibition at 100 µg/mL amounted to 99.1 ± 0.5%.
For the molecule `NC(=O)c1cc(O)c(O)c(O)c1.O.O.O` [Gallamide trihydrate, gallamide trihydrate], the “Decrease in absorbance, %” value in the assay with Aβ 1-40 amyloid fibrils is given as 31 ± 1.9%. Moreover, the “Fluorescence inhibition, %, at the Aβ 1-42:compound w/w ratios given” value with Aβ 1-42 amyloid fibrils (setting [3]) came to 60 ± 2.2%.
Regarding `O=c1c(O)c(-c2cc(O)c(O)c(O)c2)oc2cc(O)cc(O)c12` [Myricetin, myricetin], the Congo red staining result on human amylin [1] is “marked decrease in Congo red staining”. At human amylin [2], the inhibition at 100 µg/mL amounted to 97.4 ± 0.3%.
Turning to `Oc1cc(O)cc(-c2c(O)cc(O)cc2O)c1` [Phloroglucide, phloroglucide], the “Fluorescence inhibition, %, at the Aβ 1-42:compound w/w ratios given” value in the assay with Aβ 1-42 amyloid fibrils (setting [4]) is 30 ± 0.6%.
`CCCOC(=O)c1cc(O)c(O)c(O)c1` [Propyl gallate, propyl gallate]: the “Decrease in absorbance, %” value in the assay on Aβ 1-40 amyloid fibrils was found to be 17 ± 7.3 %. Also, the “Fluorescence inhibition, %, at the Aβ 1-42:compound w/w ratios given” value in the assay with Aβ 1-42 amyloid fibrils (setting [3]) was 38 ± 4.8%.
On to `Oc1cccc(O)c1O` [Pyrogallol, pyrogallol], for which the “Decrease in absorbance, %” value with Aβ 1-40 amyloid fibrils is given as 63 ± 3.4%. In addition, the “Fluorescence inhibition, %, at the Aβ 1-42:compound w/w ratios given” value with Aβ 1-42 amyloid fibrils (setting [3]) is reported as 72 ± 3.8%.
Consider `O=C(O)[C@]1(O)C[C@@H](O)[C@@H](O)[C@H](O)C1` [Quinic acid, quinic acid], for which the “Decrease in absorbance, %” value in the assay with Aβ 1-40 amyloid fibrils is reported as 0 + 5.0** %. Further, in the assay with Aβ 1-42 amyloid fibrils (setting [3]), the “Fluorescence inhibition, %, at the Aβ 1-42:compound w/w ratios given” value amounted to 0.5 ± 3.9 %.
